The results in this text go back to ChEMBL document CHEMBL5649166, “RIP3 induces apoptosis independent of pronecrotic kinase activity” (Mol Cell, 2014).

Each structure is given as a SMILES string.

Experiment [1] concerns the target Serine/threonine-protein kinase B-raf (Homo sapiens) (UniProt P15056). Put plainly: Inhibition of human BRAF using MEK1 (K97R) as substrate at 1 uM in presence of 32P-ATP by Hotspot assay relative to control; values are per cent of control.
Experiment [2] deals with T1, Serine/threonine-protein kinase TAO3 (Homo sapiens) (UniProt Q9H2K8).
T1 sequence (whole entry): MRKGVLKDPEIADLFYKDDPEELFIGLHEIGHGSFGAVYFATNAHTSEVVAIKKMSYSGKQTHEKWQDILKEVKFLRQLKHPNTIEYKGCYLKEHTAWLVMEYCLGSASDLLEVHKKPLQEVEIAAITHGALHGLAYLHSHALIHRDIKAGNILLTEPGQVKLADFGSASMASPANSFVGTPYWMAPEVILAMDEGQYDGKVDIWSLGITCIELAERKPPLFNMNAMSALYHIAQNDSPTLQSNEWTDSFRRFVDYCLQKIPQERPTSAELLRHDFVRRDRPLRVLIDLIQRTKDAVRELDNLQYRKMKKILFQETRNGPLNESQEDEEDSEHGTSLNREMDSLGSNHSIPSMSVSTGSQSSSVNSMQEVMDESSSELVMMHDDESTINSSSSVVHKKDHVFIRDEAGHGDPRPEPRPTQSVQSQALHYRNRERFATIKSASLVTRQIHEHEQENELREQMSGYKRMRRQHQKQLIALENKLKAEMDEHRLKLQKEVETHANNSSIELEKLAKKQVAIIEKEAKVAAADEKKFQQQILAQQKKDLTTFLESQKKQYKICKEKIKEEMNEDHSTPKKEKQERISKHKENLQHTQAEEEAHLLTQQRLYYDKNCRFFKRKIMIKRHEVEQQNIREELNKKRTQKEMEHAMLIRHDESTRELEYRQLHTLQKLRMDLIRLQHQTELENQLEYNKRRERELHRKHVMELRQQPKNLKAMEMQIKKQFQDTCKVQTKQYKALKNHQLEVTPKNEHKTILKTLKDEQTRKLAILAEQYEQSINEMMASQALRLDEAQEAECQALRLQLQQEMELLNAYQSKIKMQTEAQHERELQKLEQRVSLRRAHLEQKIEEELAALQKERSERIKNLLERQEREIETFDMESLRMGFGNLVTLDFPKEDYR
Put plainly: Inhibition of human TAOK3/JIK using myelin basic protein as substrate at 1 uM in presence of 32P-ATP by Hotspot assay relative to control; values are per cent of control.

Experiment [3] deals with G protein-coupled receptor kinase 6 (Homo sapiens) (UniProt P43250). The experiment in a line: Inhibition of human GRK6 using casein as substrate at 1 uM in presence of 32P-ATP by Hotspot assay relative to control; values are per cent of control.
Sequence of G protein-coupled receptor kinase 6 (Homo sapiens) (P43250 whole entry, looked up): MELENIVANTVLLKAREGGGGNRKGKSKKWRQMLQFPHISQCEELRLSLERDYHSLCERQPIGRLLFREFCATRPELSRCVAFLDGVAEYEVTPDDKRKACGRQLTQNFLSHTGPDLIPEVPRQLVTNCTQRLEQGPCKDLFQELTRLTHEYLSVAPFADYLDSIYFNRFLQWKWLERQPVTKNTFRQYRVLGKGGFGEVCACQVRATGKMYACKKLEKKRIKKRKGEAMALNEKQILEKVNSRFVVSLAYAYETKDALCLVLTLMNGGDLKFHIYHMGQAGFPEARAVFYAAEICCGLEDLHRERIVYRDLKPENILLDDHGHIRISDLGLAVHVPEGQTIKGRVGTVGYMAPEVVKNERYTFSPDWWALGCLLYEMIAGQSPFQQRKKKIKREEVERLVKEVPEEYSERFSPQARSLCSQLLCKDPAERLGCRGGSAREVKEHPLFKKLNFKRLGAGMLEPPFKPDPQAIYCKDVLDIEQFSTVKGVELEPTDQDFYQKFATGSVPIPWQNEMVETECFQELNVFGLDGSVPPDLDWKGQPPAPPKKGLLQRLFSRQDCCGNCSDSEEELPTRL
Experiment [4] concerns the target Protein kinase C beta type (Homo sapiens) (UniProt P05771). Put plainly: Inhibition of human PKCb2 using ERMRPRKRQGSVRRRV as substrate at 1 uM in presence of 32P-ATP by Hotspot assay relative to control; values are per cent of control.
Experiment [5] addresses T2, Ephrin type-B receptor 2 (Homo sapiens) (UniProt P29323).
T2 sequence (whole entry): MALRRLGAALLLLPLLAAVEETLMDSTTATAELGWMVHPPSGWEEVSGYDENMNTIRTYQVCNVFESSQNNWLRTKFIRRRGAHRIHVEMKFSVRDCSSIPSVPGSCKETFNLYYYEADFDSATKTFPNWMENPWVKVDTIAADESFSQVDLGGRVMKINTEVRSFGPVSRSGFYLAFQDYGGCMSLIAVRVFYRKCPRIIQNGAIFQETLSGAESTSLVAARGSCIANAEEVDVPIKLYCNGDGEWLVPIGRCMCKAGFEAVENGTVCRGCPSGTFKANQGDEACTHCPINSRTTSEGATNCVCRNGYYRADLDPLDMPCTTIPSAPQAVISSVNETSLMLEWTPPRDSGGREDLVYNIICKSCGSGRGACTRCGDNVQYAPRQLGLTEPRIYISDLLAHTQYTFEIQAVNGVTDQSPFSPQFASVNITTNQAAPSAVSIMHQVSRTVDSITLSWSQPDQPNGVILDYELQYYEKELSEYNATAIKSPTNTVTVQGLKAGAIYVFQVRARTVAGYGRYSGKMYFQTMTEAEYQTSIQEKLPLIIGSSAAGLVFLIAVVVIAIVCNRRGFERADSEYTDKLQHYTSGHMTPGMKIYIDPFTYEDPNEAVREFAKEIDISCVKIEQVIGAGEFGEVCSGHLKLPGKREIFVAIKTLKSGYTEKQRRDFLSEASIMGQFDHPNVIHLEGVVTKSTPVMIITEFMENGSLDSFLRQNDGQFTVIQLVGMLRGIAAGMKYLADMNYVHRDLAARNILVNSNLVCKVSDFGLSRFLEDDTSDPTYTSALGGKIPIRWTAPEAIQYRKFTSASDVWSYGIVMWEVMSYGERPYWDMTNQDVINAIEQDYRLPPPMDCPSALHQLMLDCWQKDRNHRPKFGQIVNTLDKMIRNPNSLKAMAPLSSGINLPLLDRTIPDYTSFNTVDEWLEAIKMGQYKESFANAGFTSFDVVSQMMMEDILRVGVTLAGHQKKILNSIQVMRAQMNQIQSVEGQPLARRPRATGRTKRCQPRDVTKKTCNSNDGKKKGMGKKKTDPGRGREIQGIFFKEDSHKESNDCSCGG
The experiment in a line: Inhibition of human EPHB2 using poly[Glu:Tyr] (4:1) as substrate at 1 uM in presence of 32P-ATP by Hotspot assay relative to control; values are per cent of control.

Experiment [6] concerns the target Receptor-interacting serine/threonine-protein kinase 2 (Homo sapiens) (UniProt O43353). Put plainly: Inhibition of human RIPK2 using myelin basic protein as substrate at 1 uM in presence of 32P-ATP by Hotspot assay relative to control; values are per cent of control.
Experiment [7] deals with Tyrosine-protein kinase FRK (Homo sapiens) (UniProt P42685). Put plainly: Inhibition of human FRK/PTK5 using poly[Glu:Tyr] (4:1) as substrate at 1 uM in presence of 32P-ATP by Hotspot assay relative to control; values are per cent of control.
Sequence of Tyrosine-protein kinase FRK (Homo sapiens) (P42685 whole entry): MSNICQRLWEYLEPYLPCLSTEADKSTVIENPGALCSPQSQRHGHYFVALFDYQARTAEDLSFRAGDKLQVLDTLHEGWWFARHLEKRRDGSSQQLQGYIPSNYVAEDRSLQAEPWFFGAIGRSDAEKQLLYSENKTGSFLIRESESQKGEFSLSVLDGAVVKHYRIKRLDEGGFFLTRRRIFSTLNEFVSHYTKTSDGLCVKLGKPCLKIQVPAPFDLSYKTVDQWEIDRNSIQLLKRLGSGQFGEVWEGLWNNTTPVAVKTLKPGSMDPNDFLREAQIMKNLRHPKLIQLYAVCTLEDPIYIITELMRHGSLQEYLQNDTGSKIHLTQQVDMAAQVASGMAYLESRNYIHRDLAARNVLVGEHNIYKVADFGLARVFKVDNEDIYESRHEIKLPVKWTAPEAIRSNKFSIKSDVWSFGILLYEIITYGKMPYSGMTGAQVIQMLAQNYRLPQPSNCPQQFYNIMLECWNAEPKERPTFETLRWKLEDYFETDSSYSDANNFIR
Experiment [8] has as its target Death-associated protein kinase 2 (Homo sapiens) (UniProt Q9UIK4). The experiment in a line: Inhibition of human DAPK2 using KKLNRTLSFAEPG as substrate at 1 uM in presence of 32P-ATP by Hotspot assay relative to control; values are per cent of control.
Experiment [9] deals with Serine/threonine-protein kinase MARK1 (Homo sapiens) (UniProt Q9P0L2). Put plainly: Inhibition of human MARK1 using KKKVSRSGLYRSPSMPENLNRPR as substrate at 1 uM in presence of 32P-ATP by Hotspot assay relative to control; values are per cent of control.
Sequence of Serine/threonine-protein kinase MARK1 (Homo sapiens) (Q9P0L2 whole entry, looked up): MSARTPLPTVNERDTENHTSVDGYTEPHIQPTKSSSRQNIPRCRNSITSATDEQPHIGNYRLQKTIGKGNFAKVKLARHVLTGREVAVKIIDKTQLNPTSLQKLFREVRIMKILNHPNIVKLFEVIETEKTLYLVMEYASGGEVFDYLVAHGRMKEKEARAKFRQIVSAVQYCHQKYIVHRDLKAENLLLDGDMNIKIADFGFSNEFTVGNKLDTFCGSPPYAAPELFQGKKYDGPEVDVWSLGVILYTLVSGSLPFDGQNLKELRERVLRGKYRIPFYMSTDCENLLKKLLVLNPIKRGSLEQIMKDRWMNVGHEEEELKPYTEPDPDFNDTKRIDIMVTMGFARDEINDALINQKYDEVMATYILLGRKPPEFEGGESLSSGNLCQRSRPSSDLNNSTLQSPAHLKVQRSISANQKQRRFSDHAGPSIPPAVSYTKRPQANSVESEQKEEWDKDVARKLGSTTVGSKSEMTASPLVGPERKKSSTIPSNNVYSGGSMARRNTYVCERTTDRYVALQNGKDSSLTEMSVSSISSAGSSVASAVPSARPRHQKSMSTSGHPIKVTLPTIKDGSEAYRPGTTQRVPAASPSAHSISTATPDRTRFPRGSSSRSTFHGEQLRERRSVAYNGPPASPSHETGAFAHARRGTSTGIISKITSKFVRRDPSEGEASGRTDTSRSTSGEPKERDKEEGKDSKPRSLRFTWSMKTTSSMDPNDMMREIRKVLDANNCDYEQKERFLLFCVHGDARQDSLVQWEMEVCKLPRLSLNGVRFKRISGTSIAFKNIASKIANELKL

Sequence of Serine/threonine-protein kinase B-raf (Homo sapiens) (P15056 whole entry): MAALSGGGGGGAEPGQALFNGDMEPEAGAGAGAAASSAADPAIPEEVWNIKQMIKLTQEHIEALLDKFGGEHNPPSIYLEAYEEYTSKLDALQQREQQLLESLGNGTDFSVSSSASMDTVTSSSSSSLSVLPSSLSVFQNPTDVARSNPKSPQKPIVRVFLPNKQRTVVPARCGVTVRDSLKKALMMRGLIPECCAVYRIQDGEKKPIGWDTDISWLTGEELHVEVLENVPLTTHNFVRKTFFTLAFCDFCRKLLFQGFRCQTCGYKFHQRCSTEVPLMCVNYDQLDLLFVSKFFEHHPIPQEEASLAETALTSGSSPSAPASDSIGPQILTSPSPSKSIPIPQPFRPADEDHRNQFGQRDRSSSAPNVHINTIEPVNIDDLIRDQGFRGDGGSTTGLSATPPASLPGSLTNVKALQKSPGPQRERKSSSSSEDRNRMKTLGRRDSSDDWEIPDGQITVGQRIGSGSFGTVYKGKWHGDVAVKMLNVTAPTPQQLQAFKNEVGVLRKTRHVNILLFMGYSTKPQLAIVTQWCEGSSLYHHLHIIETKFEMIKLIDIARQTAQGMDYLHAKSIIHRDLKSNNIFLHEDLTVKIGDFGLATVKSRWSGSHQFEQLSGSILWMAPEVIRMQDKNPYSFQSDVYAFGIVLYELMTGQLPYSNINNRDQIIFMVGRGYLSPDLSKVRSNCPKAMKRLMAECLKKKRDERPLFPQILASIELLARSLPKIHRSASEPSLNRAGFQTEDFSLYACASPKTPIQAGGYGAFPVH
Sequence of Protein kinase C beta type (Homo sapiens) (P05771 2-671 limits assumed): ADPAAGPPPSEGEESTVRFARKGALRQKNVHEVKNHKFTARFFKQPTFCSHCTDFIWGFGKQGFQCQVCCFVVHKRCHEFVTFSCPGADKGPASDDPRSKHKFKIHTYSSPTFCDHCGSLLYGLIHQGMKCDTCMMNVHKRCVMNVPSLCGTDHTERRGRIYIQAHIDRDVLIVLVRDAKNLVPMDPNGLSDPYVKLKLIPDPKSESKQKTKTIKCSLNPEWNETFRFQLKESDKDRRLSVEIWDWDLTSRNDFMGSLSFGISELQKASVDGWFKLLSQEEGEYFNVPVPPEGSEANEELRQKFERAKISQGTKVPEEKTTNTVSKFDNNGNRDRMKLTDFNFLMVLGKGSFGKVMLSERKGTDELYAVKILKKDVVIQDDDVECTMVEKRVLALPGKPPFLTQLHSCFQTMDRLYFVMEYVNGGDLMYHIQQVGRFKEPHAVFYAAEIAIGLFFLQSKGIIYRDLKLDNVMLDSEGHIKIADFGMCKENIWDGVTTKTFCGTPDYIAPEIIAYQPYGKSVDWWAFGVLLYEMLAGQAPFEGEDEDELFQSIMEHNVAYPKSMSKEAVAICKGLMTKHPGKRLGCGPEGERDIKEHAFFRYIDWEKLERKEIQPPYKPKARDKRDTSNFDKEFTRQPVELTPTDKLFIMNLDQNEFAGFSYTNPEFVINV
Sequence of Death-associated protein kinase 2 (Homo sapiens) (Q9UIK4 whole entry, looked up): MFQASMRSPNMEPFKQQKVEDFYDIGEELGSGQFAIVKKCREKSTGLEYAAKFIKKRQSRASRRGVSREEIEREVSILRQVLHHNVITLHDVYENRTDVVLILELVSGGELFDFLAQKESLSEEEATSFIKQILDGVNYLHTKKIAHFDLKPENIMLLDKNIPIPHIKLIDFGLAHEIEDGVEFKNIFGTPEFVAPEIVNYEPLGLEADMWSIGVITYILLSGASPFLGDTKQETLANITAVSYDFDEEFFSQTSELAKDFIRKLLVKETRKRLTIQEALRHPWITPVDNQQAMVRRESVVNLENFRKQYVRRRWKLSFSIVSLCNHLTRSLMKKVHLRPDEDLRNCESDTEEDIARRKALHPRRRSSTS
Sequence of Receptor-interacting serine/threonine-protein kinase 2 (Homo sapiens) (O43353 whole entry): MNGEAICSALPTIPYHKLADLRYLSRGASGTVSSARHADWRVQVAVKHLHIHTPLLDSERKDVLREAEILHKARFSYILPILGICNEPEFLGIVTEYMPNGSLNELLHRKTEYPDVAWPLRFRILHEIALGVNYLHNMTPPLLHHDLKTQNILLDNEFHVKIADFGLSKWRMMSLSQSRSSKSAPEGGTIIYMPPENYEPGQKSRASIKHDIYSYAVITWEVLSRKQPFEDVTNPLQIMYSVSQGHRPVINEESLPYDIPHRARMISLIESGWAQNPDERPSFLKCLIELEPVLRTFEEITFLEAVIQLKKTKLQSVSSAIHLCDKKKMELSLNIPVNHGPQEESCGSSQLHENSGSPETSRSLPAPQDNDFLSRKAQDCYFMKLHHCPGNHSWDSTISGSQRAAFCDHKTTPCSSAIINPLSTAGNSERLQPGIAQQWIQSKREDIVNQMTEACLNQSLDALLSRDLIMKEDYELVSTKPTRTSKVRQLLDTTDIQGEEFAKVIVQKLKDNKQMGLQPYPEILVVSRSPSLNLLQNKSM

`Cc1cc(-c2cnc(N)c3c(-c4ccc5scnc5c4)csc23)n(C)n1`: the residual activity (commonly the signal under treatment as a percentage of the control signal) in [1] was 79.6%; in [2], 99.4%; in experiment [3] it was 91.9%; in experiment [4] it was 76.8%; in experiment [5], 31%; in experiment [6] it was 13.6%. The residual activity in [7] stood at 65.3%; in [8], 82.4%; in experiment [9], 103%.
In the case of `CC(C)S(=O)(=O)c1ccc2nccc(Nc3ccc4scnc4c3)c2c1`, the residual activity in experiment [1] was determined as 90.2%; in experiment [2], 96.4%; in experiment [3], 101%; in [4], 94.8%; in experiment [5], 78.7%; in experiment [6] it was 20.7%. Besides, the residual activity in [7] was found to be 33.5%; in [8], 104%; in experiment [9], 96.3%.
As to `CNC(=O)c1ccc2c(c1)ncn2-c1ccc(CC(=O)OC(C)(C)C)cc1`, the residual activity in [1] is 96.1%; in experiment [2], 95.2%; in experiment [3] it was 96.4%; in experiment [4], 94.7%; in experiment [5], 95%; in experiment [6] it was 82.3%. The residual activity in experiment [7] amounted to 90.8%; in experiment [8], 96.3%; in [9] it was 96.2%.
